In US20090226500A1, “SUTURES AND ANTI-SCARRING AGENTS” (Angiotech Pharmaceuticals, Inc, priority 2006, published 2009) one finds IC50 data, which are given here for twelve compounds.

Structures can show the parent of a compound that is named as a salt. Where two headings read alike, the source gives them in different places.

Assay [1] relates to IL-8 production by THP-1 cells. As to the kind of experiment: IL-8 production by macrophages. The class given is cell-based, human. The following applies: THP-1 cells stimulated with opsonized zymosan, 24 hours, read-out: IC50 IL-8 production. Here is the method:
(§1) The human macrophage cell line, THP-1 was plated in a 12 well plate such that each well contains 1×10^6 cells in 2 ml of media containing 10% FCS. Opsonized zymosan was prepared by resuspending 20 mg of zymosan A in 2 ml of ddH2O and homogenizing until a uniform suspension was obtained. Homogenized zymosan was pelleted at 250 g, resuspended in 4 ml of human serum for a final concentration of 5 mg/ml, and incubated in a 37° C. water bath for 20 minutes to enable opsonization. Geldanamycin was prepared in DMSO at a concentration of 10^−2 M and serially diluted 10-fold to give a range of stock concentrations (10^−8 M to 10^−2 M).
THP-1 cells were stimulated to produce IL-8 by the addition of 1 mg/ml opsonized zymosan. Geldanamycin was added to THP-1 cells by directly adding DMSO stock solutions, prepared earlier, at a 1/1000 dilution, to each well. Each drug concentration was tested in triplicate wells. Plates were incubated at 37° C. for 24 hours.
After a 24-hour stimulation, supernatants were collected to quantify IL-8 production. IL-8 concentrations in the supernatants were determined by ELISA using recombinant human IL-8 to obtain a standard curve. A 96-well MAXISORB plate was coated with 100 μL of anti-human IL-8 Capture Antibody diluted in Coating Buffer (0.1M sodium carbonate pH 9.5) overnight at 4° C. The dilution of Capture Antibody used was lot-specific and was determined empirically. Capture antibody was then aspirated and the plate washed 3 times with Wash Buffer (PBS, 0.05% TWEEN-20). Plates were blocked for 1 hour at room temperature with 200 μL/well of Assay Diluent (PBS, 10% FCS pH 7.0). After blocking, plates were washed 3 times with Wash Buffer. Standards and sample dilutions were prepared as follows: (a) sample supernatants were diluted 1/100 and 1/1000; (b) recombinant human IL-8 was prepared at 200 pg/ml and serially diluted to yield as standard curve of 3.1 pg/ml to 200 pg/ml Sample supernatants and standards were assayed in triplicate and were incubated at room temperature for 2 hours after addition to the plate coated with Capture Antibody The plates were washed 5 times and incubated with 100 μL of Working Detector (biotinylated anti-human IL-8 detection antibody+avidin-HRP) for 1 hour at room temperature. Following this incubation, the plates were washed 7 times and 100 μL of Substrate Solution (Tetramethylbenzidine, H2O2) was added to plates and incubated for 30 minutes at room temperature. Stop Solution (2 NH2SO4) was then added to the wells and a yellow color reaction was read at 450 nm with A correction at 570 nm. Mean absorbance was determined from triplicate data readings and the mean background was subtracted. IL-8 concentration values were obtained from the standard curve. […] The IC50 values for the following additional compounds were determined using this assay: IC50 (nM): 17-AAG, 56; mycophenolic acid, 549; resveratrol, 507; rapamycin, 4; 41; SP600125, 344; halofuginone, 641; D-mannose-6-phosphate, 220; epirubicin hydrochloride, 654; topotemay, 257; mithramycin, 33; daunorubicin, 421; celastrol, 490; chromomycin A3, 36

Assay [2] concerns MCP-1 production by THP-1 cells. Briefly: MCP-1 production by macrophages. It counts as cell-based, human. To be noted: read-out: IC50 MCP-1 production. Here is the method: as §1, with “g and” for “g,”, “mg/ml” for “mg/ml,”
THP-1 cells were stimulated to produce MCP-1 by the addition of 1 mg/ml opsonized zymosan. […] was added to THP-1 cells by directly adding DMSO stock solutions, prepared earlier, at a 1/1000 dilution, to each well. Each drug concentration was tested in triplicate wells. Plates were incubated at 37° C. for 24 hours.
After a 24-hour stimulation, supernatants were collected to quantify MCP-1 production. MCP-1 concentrations in the supernatants were determined by ELISA using recombinant human MCP-1 to obtain a standard curve. A 96-well MaxiSorb plate was coated with 100 μL of anti-human MCP-1 Capture Antibody diluted in Coating Buffer (0.1M sodium carbonate pH 9.5) overnight at 4° C. The dilution of Capture Antibody used was lot-specific and was determined empirically. Capture antibody was then aspirated and the plate washed 3 times with Wash Buffer (PBS, 0.05% TWEEN-20). Plates were blocked for 1 hour at room temperature with 200 μL/well of Assay Diluent (PBS, 10% FCS pH 7.0). After blocking, plates were washed 3 times with Wash Buffer. […] Sample supernatants and standards were assayed in triplicate and were incubated at room temperature for 2 hours after addition to the plate coated with Capture Antibody. The plates were washed 5 times and incubated with 100 μL of Working Detector (biotinylated anti-human MCP-1 detection antibody+avidin-HRP) for 1 hour at room temperature. Following this incubation, the plates were washed 7 times and 100 μL of Substrate Solution (tetramethylbenzidine, H2O2) was added to plates and incubated for 30 minutes at room temperature. […] Mean absorbance was determined from triplicate data readings and the mean background was subtracted. MCP-1 concentration values were obtained from the standard curve.

Assay [3] has as its system Smooth muscle cells. As to the kind of experiment: Proliferation of smooth muscle cells. The class given is cell-based. To be noted: 72 hours, CYQUANT; read-out: IC50 proliferation of smooth muscle cells. Here is the method: Smooth muscle cells at 70-90% confluency were trypsinized, replated at 600 cells/well in media in 96-well plates and allowed to attachment overnight. Paclitaxel was prepared in DMSO at a concentration of 10^−2 M and diluted 10-fold to give a range of stock concentrations (10^−8 M to 10^−2 M). […] Each drug concentration was tested in triplicate wells. Plates containing cells and paclitaxel were incubated at 37° C. for 72 hours.
To terminate the assay, the media was removed by gentle aspiration A 1/400 dilution of CYQUANT 400×GR dye indicator (Molecular Probes; Eugene, Oreg.) was added to 1× Cell Lysis buffer, and 200 μL of the mixture was added to the wells of the plate. Plates were incubated at room temperature, protected from light for 3-5 minutes.

Assay [4] deals with IL-1β production by THP-1 cells. As to the kind of experiment: IL-1β production by macrophages. The class given is cell-based, human. The following applies: read-out: IC50 IL-1β production.
Assay [5] has as its system TNFα production by THP-1 cells. Briefly: TNF-alpha production by macrophages. To be noted: read-out: IC50 TNFα production. It counts as cell-based, human. As for the experimental part: The human macrophage cell line, THP-1 was plated in a 12-well plate such that each well contains 1×10^6 cells in 2 ml of media containing 10% FCS. Opsonized zymosan was prepared by resuspending 20 mg of zymosan A in 2 ml of ddH2O and homogenizing until a uniform suspension was obtained. Homogenized zymosan was pelleted at 250 g and resuspended in 4 ml of human serum for a final concentration of 5 mg/ml and incubated in a 37° C. water bath for 20 minutes to enable opsonization.
THP-1 cells were stimulated to produce TNFα by the addition of 1 mg/ml opsonized zymosan. […] Each drug concentration was tested in triplicate wells. Plates were incubated at 37° C. for 24 hours.
After a 24-hour stimulation, supernatants were collected to quantify TNFα production. TNFα concentrations in the supernatants were determined by ELISA using recombinant human TNFα to obtain a standard curve A 96-well MaxiSorb plate was coated with 100 μL of anti-human TNFα Capture Antibody diluted in Coating Buffer (0.1M sodium carbonate pH 9 5) overnight at 4° C. The dilution of Capture Antibody used was lot-specific and was determined empirically. Capture antibody was then aspirated and the plate washed 3 times with Wash Buffer (PBS, 0.05% TWEEN-20) Plates were blocked for 1 hour at room temperature with 200 μL/well of Assay Diluent (PBS, 10% FCS pH 7.0). After blocking, plates were washed 3 times with Wash Buffer. […] Sample supernatants and standards were assayed in triplicate and were incubated at room temperature for 2 hours after addition to the plate coated with Capture Antibody. The plates were washed 5 times and incubated with 100 μL of Working Detector (biotinylated anti-human TNFα detection antibody+avidin-HRP) for 1 hour at room temperature. Following this incubation, the plates were washed 7 times and 100 μL of Substrate Solution (tetramethylbenzidine, H2O2) was added to plates and incubated for 30 minutes at room temperature. […] Mean absorbance was determined from triplicate data readings and the mean background was subtracted. TNFα concentration values were obtained from the standard curve.

Assay [6] relates to human fibroblasts. As to the kind of experiment: Cell proliferation of fibroblasts. It counts as cell-based. To be noted: Fibroblast, 72 hours, CYQUANT, read-out: IC50 cell proliferation of fibroblasts. In short, it runs like this:
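Human fibroblasts plated at 600 cells/well, attached overnight, then exposed to drug in triplicate for 72 h at 37°C. Cell content read with CYQUANT GR dye in lysis buffer after 3-5 min at room temperature.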

[7] abbreviates: THP-1 cells stimulated with opsonized zymosan, 24 hours.
The mark [8] stands for this setting: Homo sapiens, THP-1 cells stimulated with opsonized zymosan, 24 hours.

Consider `C=CCNC1=C2C[C@@H](C)C[C@H](OC)[C@H](O)[C@@H](C)/C=C(\C)[C@H](OC(N)=O)[C@@H](OC)/C=C\C=C(/C)C(=O)NC(=CC1=O)C2=O` [17-AAG, 17-allylaminogeldanamycin], for which the IC50 in assay [1] was 56 nM; in assay [2] (setting [7]), 135 nM; in assay [3], 47 nM.

`C[C@H](NC(=O)C(=O)Nc1ccccc1C(C)(C)C)C(=O)N[C@@H](CC(=O)O)C(=O)COc1c(F)c(F)cc(F)c1F` [IDN-6556]: the IC50 in assay [4] (setting [8]) came out at 642 nM.

Take `COc1ccc(C[C@H]2NC[C@H](O)[C@H]2OC(C)=O)cc1` [anisomycin]: the IC50 in assay [4] (setting [7]) was found to be 127 nM; in assay [2] (setting [7]) it was 71 nM; in assay [3], 276 nM.

Regarding `CO[C@@H]1[C@H](O)C[C@@H](O[C@@H]2C[C@H](Oc3cc4cc5c(c(O)c4c(O)c3C)C(=O)[C@@H](O[C@H]3C[C@@H](O[C@H]4C[C@@H](O[C@H]6C[C@](C)(O)[C@@H](OC(C)=O)[C@H](C)O6)[C@H](O)[C@@H](C)O4)[C@H](O)[C@@H](C)O3)[C@H]([C@H](OC)C(=O)[C@@H](O)[C@@H](C)O)C5)O[C@H](C)[C@@H]2OC(C)=O)O[C@@H]1C` [chromomycin A3], the IC50 came to 394 nM in assay [5] (setting [7]); 148 nM in assay [4]; 36 nM in assay [1]; 37 nM in assay [2] (setting [7]); 12 nM in assay [3].

As to `COc1cccc2c1C(=O)c1c(O)c3c(c(O)c1C2=O)C[C@@](O)(C(C)=O)C[C@@H]3O[C@H]1C[C@H](N)[C@H](O)[C@H](C)O1` [daunorubicin], the IC50 in assay [5] (setting [7]) is 195 nM; in assay [4], 517 nM; in assay [1], 421 nM; in assay [2] (setting [7]), 570 nM; in assay [3], 50 nM.

As to `COc1cccc2c1C(=O)c1c(O)c3c(c(O)c1C2=O)C[C@@](O)(C(=O)CO)C[C@@H]3O[C@H]1C[C@H](N)[C@@H](O)[C@H](C)O1` [epirubicin hydrochloride], the IC50 is 774 nM in assay [4] (setting [7]), 654 nM in assay [1] and 19 nM in assay [3].

Turning to `O=C1c2ccccc2-[n+]2ccc3c([nH]c4ccccc43)c21` [fascaplycin, Fascaplysin], the IC50 was 701 nM in assay [5] (Homo sapiens, THP-1, 24 h); 600 to 1200 nM in assay [6]; 425 nM in assay [4] (Homo sapiens, THP-1, 24 h); 215 nM in assay [2] (Homo sapiens, THP-1, 24 h); 510 nM in assay [3].

In the case of `O=C(CC1NCCCC1O)Cn1cnc2cc(Br)c(Cl)cc2c1=O` (stereo not shown) [halofuginone], the IC50 in assay [6] is 10 to 100 nM; in assay [4] (Homo sapiens, THP-1, 24 h), 919 nM; in assay [1] (Homo sapiens), 641 nM; in assay [2] (setting [8]), 9 nM; in assay [3], 81 nM.

Take `O=C1[O][Pt]2([NH][C@@H]3CCCC[C@H]3[NH]2)[O]C1=O` [oxalipatin, Oxaliplatin]: in assay [4] (setting [7]), the IC50 was determined as 107 nM.

With `CC[C@@]1(O)C(=O)OCc2c1cc1n(c2=O)Cc2cc3c(CN(C)C)c(O)ccc3nc2-1` [topotemay, Topotecan], the IC50 amounted to 509 nM in assay [4] (setting [7]), 257 nM in assay [1], 514 nM in assay [2] (setting [7]) and 51 nM in assay [3].

On to Mithramycin A, for which the IC50 stood at 570 nM in assay [5] (setting [7]), 33 nM in assay [1], 18 nM in assay [2] (setting [7]) and 19 nM in assay [3].

Take rapamycin: the IC50 came out at 51 nM in assay [5] (setting [7]), 0.48 nM in assay [4] (setting [7]), 4 nM in assay [1] and 0.05 nM in assay [2] (setting [7]).
